From PMC10824666 (Nature Cancer, 2023) come the findings set out here.

For one experiment, the target named is NEK6 (Homo sapiens, UniProt Q9HC98). The experiment in a line: biochemical. More on the design: Eurofins DiscoverX kinase panel, competitive binding assay at 1 uM, percent of DMSO control. Particulars: competitive binding, percent of DMSO control. As for the experimental part:
(§1) Extended Data Fig. 3 In vitro characterization of potent and selective KIF18A inhibitors. a, KIF18A compounds (1 µM) were assessed across a panel of kinases (n = 96) by a competitive binding assay. Graph presented as percentage of control (POC); dashed line indicates POC value of 30 (n = 1 experiment). b, Tubulin polymerization analysis. Profile of KIF18A compounds (10 µM) relative to DMSO, paclitaxel (5 µM, tubulin stabilizer), or nocodazole (5 µM, tubulin destabilizer). Graphs presented as tubulin fluorescence signal at 440 nm expressed as arbitrary units (a.u.) versus time (min) with area-under-the-curve (AUC) values (n = 1 or 3 independent experiments). c, Mitotic spindle image analysis. […] Representative images were captured with x40 objective (scale bar = 10 µm) (n = 1 experiment). d-f, KIF18A compound effects on HeLa cells. d, Cells were treated for 96 h with DMSO or KIF18A compounds at the indicated concentrations. KIF18A compound concentration-response profiles presented as count relative to the percentage of DMSO control (POC) with count EC50 values (n = 2 independent experiments in duplicate). e, KIF18A protein localization in cells after treatment for 6 hours with DMSO or AM-1882 (0.05 µM). Cells stained to detect DNA, KIF18A, and centrin-3. Representative images of mitotic cells (n = 3 per group) were captured with x60 objective (scale bar = 5 µm) and graphs of line scan measurements were obtained for DNA, KIF18A, and centrin-3 channels expressed as fluorescence intensity (a.u.) versus distance (µm) (n = 1 experiment). f, Mitotic cell fate imaging analysis. HeLa Kyoto cells co-expressing α-tubulin-EGFP and H2B-mCherry proteins released from a G1S block in media containing DMSO or AM-1882 (0.2 µM). Analysis was performed on cells entering the first mitosis (n = 40 cells per group). Graph presented as time in mitosis (h) versus mitotic cell fate, either complete cell division (CCD) or death in mitosis (DiM). Classified cells exiting mitosis by the number of daughter cells and cell death in […] We screened a small-molecule library of diverse compounds for selective inhibitors of KIF18A MT-ATPase motor activity. Two compound hits were discovered that phenocopied the effects of KIF18A KD in cells; these hits are structurally distinct from the KIF18A inhibitor BTB-1 (refs. [27],[28]). […] However, the potency of the KIF18A inhibitors was unaffected by varying ATP and MT concentrations (Extended Data Fig. 2d). This supports our proposed model in which KIF18A inhibitors occupy an allosteric pocket formed by motor helices α4 and α6 close to the motor MT-binding surface. To screen for potential off-target interactions with essential mitotic kinases, three of the KIF18A compounds were profiled against a large panel of kinases. […] We next investigated whether our KIF18A inhibitors affected tubulin polymerization in vitro in the absence of the KIF18A motor. All four KIF18A compounds had tubulin-polymerization profiles similar to that of the DMSO control and distinct from those of the paclitaxel (MT stabilizer) and nocodazole (MT destabilizer) co

A further experiment deals with T1, TAK1 (Homo sapiens, UniProt O43318).
T1 construct: gene MAP3K7
T1 sequence (O43318 1-606): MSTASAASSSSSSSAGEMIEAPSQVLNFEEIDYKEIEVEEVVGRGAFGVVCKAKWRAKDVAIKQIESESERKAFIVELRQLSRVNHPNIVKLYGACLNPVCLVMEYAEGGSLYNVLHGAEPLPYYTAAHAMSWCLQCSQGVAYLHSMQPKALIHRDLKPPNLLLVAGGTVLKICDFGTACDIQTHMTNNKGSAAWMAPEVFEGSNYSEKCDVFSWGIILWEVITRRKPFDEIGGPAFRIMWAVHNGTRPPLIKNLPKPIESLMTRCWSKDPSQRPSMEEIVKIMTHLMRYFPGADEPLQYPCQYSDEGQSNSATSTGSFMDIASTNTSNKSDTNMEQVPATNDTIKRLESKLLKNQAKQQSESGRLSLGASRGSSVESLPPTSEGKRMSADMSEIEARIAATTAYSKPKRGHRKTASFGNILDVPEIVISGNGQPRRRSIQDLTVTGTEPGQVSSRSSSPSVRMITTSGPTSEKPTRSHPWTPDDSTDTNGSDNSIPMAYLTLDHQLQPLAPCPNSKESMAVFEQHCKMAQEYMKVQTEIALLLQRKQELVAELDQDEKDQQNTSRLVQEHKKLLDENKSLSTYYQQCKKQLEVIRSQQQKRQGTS
The experiment in a line: biochemical. More on the design: Eurofins DiscoverX kinase panel, competitive binding assay at 1 uM, percent of DMSO control. Conditions: competitive binding, percent of DMSO control. As for the experimental part:
as §1

The mark [1] stands for this setting: read-out: Kinome Profiling performed by Eurofins DiscoverX / AM-0277, 1.0 µM / POC.
[2] abbreviates: read-out: Kinome Profiling performed by Eurofins DiscoverX / AM-1882, 1.0 µM / POC.
The mark [3] stands for this setting: read-out: Kinome Profiling performed by Eurofins DiscoverX / AM-5308, 1.0 µM / POC.

Like-named read-outs stand apart in the source and are kept apart here.

Sequence of NEK6 (Q9HC98 whole entry): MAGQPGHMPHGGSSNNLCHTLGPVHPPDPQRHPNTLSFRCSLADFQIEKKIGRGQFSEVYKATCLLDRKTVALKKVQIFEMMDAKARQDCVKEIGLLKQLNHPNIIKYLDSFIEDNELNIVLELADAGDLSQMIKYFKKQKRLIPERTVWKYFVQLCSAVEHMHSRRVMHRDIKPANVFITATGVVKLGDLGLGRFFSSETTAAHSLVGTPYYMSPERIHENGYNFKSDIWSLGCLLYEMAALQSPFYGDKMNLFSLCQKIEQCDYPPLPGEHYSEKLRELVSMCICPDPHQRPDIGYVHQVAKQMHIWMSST

With `CC(C)(CO)Nc1ccc(C(=O)Nc2cccc(S(=O)(=O)C3CCCC3)c2)c(N2CCC3(CC2)CC3)n1` [AM-0277], the remaining activity at 1 µM at NEK6 (setting [1]) was 94%; at TAK1 (setting [1]), 100%.

`CC(C)(C)NS(=O)(=O)c1cccc(NC(=O)c2ccc(S(=O)(=O)NC(C)(C)C)cc2N2CCC3(CC2)CC3)c1` [AM-1882]: the remaining activity at 1 µM on NEK6 (setting [2]) and on TAK1 (setting [2]) was 100% throughout.

In the case of `C[C@@H]1CN(c2cccc(NC(=O)c3ccc(NS(=O)(=O)CCO)cc3N3CCC4(CC3)CC4)n2)CCO1` [AM-5308], the remaining activity at 1 µM at NEK6 (setting [3]) worked out at 95%; at TAK1 (setting [3]) it was 88.5%.
